Experimental data taken from a melting point compilation (Tetko et al.; mined from patent text by program, amines drawn as free bases though some values may be those of a salt).

Compound | melting point [°C]
Cc1cc(C)n(-c2nc(Nc3cc(C(F)(F)F)cc(C(F)(F)F)c3)c3ccccc3n2)n1 | 169 to 172
Cc1ccc(S(=O)(=O)N2CC3CCCNC3C2)cc1 (centres undefined) | 95 to 97
C#CCn1c(C)c(C(=O)OCC)sc1=O | 65
O=C(N1CCC(N2CCOCC2)CC1)C12CC(c3ccccc31)c1ccccc12 | 179 to 180
Cn1c(CCCO)nc2cccnc21 | > 300
O=Cc1ccc(N(Cc2ccccc2)Cc2ccccc2)cc1[N+](=O)[O-] | 67 to 70
CN(C)CCN1CCC(=Cc2cc(C(C)(C)C)c(O)c(C(C)(C)C)c2)C1=O | 150
COC(=O)C1=C(C)NC2=C(C1c1cccc([N+](=O)[O-])c1)S(=O)(=O)CCC2 (centres undefined) | 236 to 238
N=C1NCCN1Cc1ccccc1 | 165 to 167
COc1ccc(-c2nn(C3CCCC3)c3c(C(F)(F)F)cccc23)c(OC)c1 | 79 to 80
O=C(O)[C@H](Cc1ccsc1)NN1C(=O)c2ccccc2C1=O | 166 to 168
COc1ccc(C2(C#N)CCC(=CC(=O)O)CC2)c2c1OCCO2 (centres undefined) | 203 to 204
COc1cc(OC)c2c(C)c(CCN3CCC(O)(c4ccccc4)CC3)c(=O)oc2c1 | 178 to 179
CCOc1cc(C(CS(C)(=O)=O)N2Cc3cccc(NC(=O)C4CC4)c3C2=O)ccc1OC(F)F (centres undefined) | 115 to 117
O=C1NC2CC3CC(C2)CC1C3 | > 270
CCc1cc2c(cc1O)C(C)(C)CCC2(C)C | 88 to 89
CCn1ncc2c(NCC3CCCCC3)c3cc(S(C)=O)ccc3nc21 (centres undefined) | 186 to 187
COC(=O)[C@@H]1CN(C(=O)OC(C)(C)C)CC[C@@H]1C(=O)O (relative stereo) | 129 to 136
O=C1c2ccccc2C(=O)N1CC(=C(Br)Br)c1ccccc1 | 154 to 155
COc1cccc(C2CCCCN(C)C2=O)c1 (centres undefined) | 73 to 74
NCc1[nH]c2cc(Br)c(Cl)cc2c1-c1ccccc1 | 162 to 163

Compound | melting point [°C]
CCc1c(-c2cc(C)c(OC)c(C)c2)[nH]c2ccccc12 | 126 to 127
CC12CC(F)C3C4CCC(=O)C=C4CC(CCCCCBr)C3C1CCC2=O (centres undefined) | 75 to 76
CC(O)c1ccc2occ(-c3nnn[nH]3)c(=O)c2c1 (centres undefined) | 234 to 236
Clc1ccc(N2CCN(Cc3n[nH]c4ccccc34)CC2)nc1 | 203 to 204
C=CCOc1ccc2c(c1)OCC1c3ccccc3OC21 (centres undefined) | 72 to 74
Cc1ccc2c(c1)C=Cc1cc(C)ccc1C2c1cn(-c2ccnc(N(C)CC(=O)Nc3nc(CC(=O)O)cs3)n2)c(=O)[nH]c1=O | 210
COc1cc2c(cc1OC)N(c1ccc([N+](=O)[O-])cc1)CC2 | 176 to 179
CC1CCCN(C[C@@H]2COc3ccc(S(C)(=O)=O)cc3O2)C1 (some centres undefined) | 159
CC(C)(C)OC(=O)COc1coc(CN2CCCC2)cc1=O | 93 to 94
N#Cc1nccc2cccc(-n3cccc3)c12 | 178
CN(C)c1ccc(C(N)P(O)O)cc1 (centres undefined) | 223 to 224
Cc1ccc(CNC(=O)c2nc(N3CCOCC3)n(C)c(=O)c2O)cc1C | 164 to 166
O=C1C(=CCc2ccccc2)SC(=S)N1N=c1sc2ccccc2s1 | 233 to 234
Cc1cc(SC2=C(O)CC(C3CCCC3)(C3CCCC3)OC2=O)c(C(C)(C)C)cc1OCCO | 90 to 92
COc1cc(Cc2cnc(N)nc2N)cc2c1OC(C)(C)C=C2c1cccc([N+](=O)[O-])c1 | 253 to 254
Nc1cnc(-c2cc(Cl)cc(Cl)c2Cl)c(N)n1 | 178 to 180
COc1ccccc1[C@@]1(O)[C@H](O)CC(c2ccccc2)(c2ccccc2)[C@@H]2CN(C(=O)Cc3ccc(N)cc3)C[C@@H]21 (racemic) | 188
c1ccc(SCc2cc3ccccc3[nH]2)cc1 | 100 to 102
CCN1CCCC(NC2c3ccccc3Oc3ccccc32)C1 (centres undefined) | 47.5 to 48.5
CN(c1ccc2c(c1)S(=O)(=O)C=C(c1c(O)c3cc(F)ccc3n(CCC3CC3)c1=O)N2)S(C)(=O)=O | 208 to 212
OCC1CC(O)C(n2c(NC3CC3)nc3cc(Cl)c(Cl)cc32)C1 (centres undefined) | 251 to 253

Compound | melting point [°C]
O=S(=O)(Br)c1ccc(Cl)s1 | 35 to 37
CCC1(CC)CN(C(C)(C)C)C(=O)C(C)(CC)N1OC(C)(C)C#N (centres undefined) | 78 to 80
CC(C)(C)OC(=O)N1CCN(c2ccc(OC[C@H]3CCn4cc([N+](=O)[O-])nc4O3)cc2)CC1 | 207 to 208
O=C(Nc1ccccc1F)OC1CN2CCC1CC2 (centres undefined) | 124 to 126
O=C1COCCOCC(=O)NCCOCCOCCN1 | 111
CCOC(=O)NC(=O)C(C#N)=CNc1ccc(Cl)cc1 | 177 to 183
c1ccc(CSc2nnn[nH]2)cc1 | 98 to 100
CN1CCN(c2ccc3nc(N)c(C#N)c(O)c3c2)CC1 | 156
NC(=O)NCc1ccc(-c2ccc3oc([N+](=O)[O-])c(-c4ccccc4)c3c2)cc1 | 215 to 216
CCCCn1c(C)c(C)cc(N)c1=O | 94 to 97
CN1CCN(c2cc(Sc3ccccc3)nc(-c3ccccc3)n2)CC1 | 125 to 128
COC(=O)c1nn(C)nc1C(=O)OC | 86 to 87
CCOC(=O)/C=C/c1ccc2c(c1)nc(N)c1nc(CC)n(CC3CCOCC3)c12 | 209 to 210
COCc1cc2c(C(=O)Nc3c(C)noc3C)ccc(OC)c2o1 | 168 to 170
CC12CCC(C1)C(C)(C)C2(S)CCO (centres undefined) | 55 to 60
CS(=O)(=O)c1ccc(C(CC2CCCC2)C(=O)Nc2nccs2)cc1S(C)(=O)=O (centres undefined) | 104 to 107
CCCN1N=C2C(=Cc3ccc(Cl)cc3)CSCC2C1c1ccc(Cl)cc1 (centres undefined) | 118 to 122
COc1ccccc1C1NC(=O)C(C)S1 (centres undefined) | 187 to 188
Cc1cc(C(=S)NCc2ccc(Br)cc2F)c(OCC(=O)O)cc1F | 162 to 164
O=C1CCC2=C(CCc3cc(Cl)ccc32)N1 | 228 to 230

Next, values leading:

melting point [°C] | Compound
118 to 120 | CCCC(O)(CCC)c1ccc(C2=CC=CC(OCc3ccc(CO)c(CO)c3)C2(C)C)cc1 (centres undefined)
56.5 to 59 | CCOc1ccccc1OCC1(O)CCN(Cc2ccccc2)C1 (centres undefined)
263 to 265 | COc1cccc2c(Nc3ccccc3C)c(C(=O)CCC(=O)O)cnc12
212 to 214 | CCOC(=O)c1c(Nc2ccncc2)c2ccc(Cl)cc2n1CC(=O)N(CC)CC
264 to 265 | O=C(O)c1ccc(-c2nc(-c3ccccc3C(F)(F)F)co2)cc1
154 to 155 | COC(=O)[C@H]1Cc2c([nH]c3ccccc23)[C@@H](c2ccc3c(c2)OCO3)N1
29 to 32 | COC(=O)C(Cc1ccccc1)Oc1ccc2cc(CN(C)C(=O)c3oc4ccccc4c3CCc3ccccc3)ccc2c1Br (centres undefined)
106 to 108 | CCC(CC)N(Cc1ccc(C(=O)OC)cc1)S(=O)(=O)c1ccc(C)cc1
223 | O=C(O)c1ccc2c(c1)S(=O)c1ccccc1O2 (centres undefined)
202 to 204 | CCC(C)C(NC(=O)OC)C(=O)NC(Cc1ccccc1)C(O)CN(Cc1ccc(-c2cncs2)cc1)NC(=O)C(NC(=O)OC)C(C)C (centres undefined)
200 | O=c1c2cccnc2c(-c2ccccc2)cn1Cc1ccncc1
242 to 244 | COC(=O)c1[nH]cc(C(=O)NCc2ccc(F)cc2)c(=O)c1OC
61 to 63 | COCCNS(=O)(=O)CC1CC(C)(C)Oc2ccc(OCCO)cc21 (centres undefined)
105 to 107 | COc1ccc(-c2cnc(-c3ccncc3)o2)cc1
191 to 192 | COc1cc2cc(C(=O)N3CC(CCl)c4c3cc(NC(=O)OCc3ccc([N+](=O)[O-])cc3)c3ccccc43)[nH]c2c(OC)c1OC (centres undefined)
138 to 140 | COCCc1cccc2oc(C(=O)O)c(C)c12
258 to 259 | O=C(O)c1ccc(COCc2csc3nc(C(=O)NCc4ccc(F)c(C(F)(F)F)c4)[nH]c(=O)c23)cc1
84 to 86 | Clc1ccccc1-c1n[nH]c(SCc2ccccc2)n1
188 to 190 | O=C1CCCN(C(=O)c2ccc([N+](=O)[O-])cc2)c2cccnc21

melting point [°C] | Compound
186 to 189 | CNCCn1nc2c3c(c(NCCNCCO)ccc31)C(=O)c1c(OCc3ccccc3)ccc(OCc3ccccc3)c1-2
81.5 to 82.5 | CCCCC/C(=C\C=C\C(=O)NCCCCc1cccnc1)c1ccc(OC)cc1
246 to 248 | CC(=NNc1ccc(C2=NNC(=O)CC2C)cc1)c1ccncc1 (centres undefined)
184 to 185 | CC(C)NS(=O)(=O)c1sccc1-c1cccc2cc(-c3ncc(CCl)s3)[nH]c12
141 to 142 | CSCCNC(=O)c1cccc(-c2ccc3c(c2)C(Oc2ccc(Cl)cc2Cl)CC3)c1 (centres undefined)
196 to 197 | CCOC(=O)C1=C(C)NC(O)(c2ccc([N+](=O)[O-])cc2)C(C(=O)OCC)C1c1cccc([N+](=O)[O-])c1 (centres undefined)
195 to 197 | O=C(O)c1ccc(N2C(=O)CCC2(CO)CO)cc1
135 to 137 | COc1cc(OC(C)(C)C(=O)O)c(-c2cccs2)cc1C=CC(=O)c1ccc(C(=O)O)cc1
112 to 115 | COc1cccc(-c2cncc(OC3SCC(OC(C)=O)C(OC(C)=O)C3OC(C)=O)c2)c1 (centres undefined)
152 to 154 | CCCCc1nc2c(N)nc3ccccc3c2n1CCOCCN1CCCS1(=O)=O
90 to 96 | C=CCn1c(=O)c2cnc(Nc3ccc(OCCN(CC)CC)cc3)nc2n(C(C)C)c1=O
177 to 179 | CCCc1c(OCCCS(=O)(=O)c2ccc(C(=O)O)cn2)ccc(C(C)=O)c1O
185 to 186 | CCOc1ccc(/C=C/c2nc3c(c(=O)n(CC)c(=O)n3CC)n2C)cc1
222 to 224 | O=C(O)C(O)c1ccc2nc(-c3ccc(Cl)cc3)oc2c1 (centres undefined)
125 to 128 | O=C1NCCN(C(=O)OCc2ccccc2)C1Cc1ccccc1 (centres undefined)
110 to 112 | O=C(c1ccc(Cl)cc1)c1cncnc1
137 to 140 | Cc1c(-c2cccnc2)n(CCCCCC(N)=O)c2ccc(Cl)cc12
156 to 158 | CCCc1c(OCc2cccc(CC(=O)O)c2)ccc(C(C)=O)c1O
